According to patent publication US20230357271A1, “MACROCYCLIC COMPOUND” (Asahi Kasei Pharma Corporation, priority 2020, published 2023):

Experiments:
[1] = test system: human acute monocytic leukemia cell strain THP-1; assay: LPS-stimulated TNFα production inhibition test using THP-1 cells; assay type: cell-based; conditions: LPS 2.5 ng/mL, TNFα by HTRF
Experimental: By the THP-1 assay, influence of a test compound on the TNFα production induced by LPS stimulation can be evaluated. The THP-1 cells (ATCC, Cat. TIB-202) were inoculated on a 96-well plate at a density of 1 × 10^5 cells/160 µL/well, a test compound was added in a volume of 20 µL, and the plate was incubated at 37° C. for 1 hour in a 5% CO2 incubator. Then, LPS in a volume of 20 µL (final concentration 2.5 ng/mL, Sigma, Cat. L2630) was added, and the plate was further incubated for 4 hours. After the incubation, the plate was centrifuged, and 100 µL of the supernatant was taken from each well, and used for evaluation of the amount of TNFα using HTRF (Cisbio, Cat. 62TNFPEB). In the measurement of the amount of TNFα, the supernatant was diluted twice with the medium, and then added to wells of a 384-well plate in a volume of 10 µL, then anti-TNFα-cryptate (5 µL), and anti-TNFα-XL665 (5 µL) were added, and the plate was left standing overnight. The fluorescence intensity ratio for the wavelengths of 620 and 665 nm (620 nm/665 nm) was measured with a microplate reader, and the amount of TNFα in the supernatant was calculated by using a calibration curve. The TNFα production suppression ratio observed with no addition of LPS was defined to be 100%, the TNFα production suppression ratio observed with no addition of the test compound was defined to be 0%, and IC50 of the test compound was calculated by using the 4-parameter logistic model of the data analysis software XLfit (ID Business Solutions Ltd.).
When the measurement was performed in multiplicate, the results are represented with average values. The values were rounded to the fourth decimal place.

human IRAK-4 = human IRAK-4 (Homo sapiens (Human), UniProt Q9NWZ3); assay: Measurement of human IRAK-4 inhibitory activity (TR-FRET); assay type: biochemical; conditions: 1 nM IRAK-4, 0.5 µM peptide substrate, 10 µM ATP, 23° C., 30 minutes
human IRAK-4, sequence (Q9NWZ3 whole entry): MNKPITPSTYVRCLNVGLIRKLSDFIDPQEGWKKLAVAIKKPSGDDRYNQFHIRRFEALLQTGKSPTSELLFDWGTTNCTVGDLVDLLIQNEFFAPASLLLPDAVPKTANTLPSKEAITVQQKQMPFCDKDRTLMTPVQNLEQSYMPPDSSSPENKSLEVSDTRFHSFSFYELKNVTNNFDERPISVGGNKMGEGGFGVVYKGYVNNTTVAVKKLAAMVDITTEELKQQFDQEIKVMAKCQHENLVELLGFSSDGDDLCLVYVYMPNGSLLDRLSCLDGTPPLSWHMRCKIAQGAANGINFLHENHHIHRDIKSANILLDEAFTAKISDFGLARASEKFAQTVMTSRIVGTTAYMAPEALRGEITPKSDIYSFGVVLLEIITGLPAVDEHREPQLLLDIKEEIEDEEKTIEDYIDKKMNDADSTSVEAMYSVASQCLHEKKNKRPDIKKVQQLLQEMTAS
Experimental: For the measurement of the activity of the human IRAK-4 (Invitrogen, Cat. PV3362), phosphorylation of the IRAK-4 peptide substrate (biotin-KKKKRFSFKKSFKC) by the enzyme in the presence of 10 µM ATP (Sigma-Aldrich, Cat. A7699) was measured by the TR-FRET method. The enzymatic reaction was performed in a reaction buffer containing 50 mM HEPES (pH 7.2), 1 mM DTT, 0.1 mM Na3VO4, 5 mM MgCl2, 1 mM MnCl2, and 0.1% bovine serum albumin. For the measurement of the IRAK-4 inhibitory activity, a test compound was added to the reaction buffer containing 1 nM IRAK-4, 0.5 µM peptide substrate, and 10 µM ATP, and the mixture was incubated at 23° C. for 30 minutes. Then, a detection solution containing an antibody labeled with europium cryptate (0.3 µg/mL, the antibody was prepared by using the IRAK-4 peptide substrate as the antigen), streptavidin-XL665 (2 µg/mL, CisBio, Cat. 610SAXLB), 50 mM HEPES (pH 7.2), 0.1% BSA, 120 mM KF, and 66.7 mM EDTA (all the concentrations of the reagents are final concentrations) was added to terminate the reaction, and then the mixture was further incubated at 23° C. for 60 minutes. Fluorescence intensity was measured at wavelengths of 665 nm and 620 nm with a microplate reader, and the enzymatic activity was calculated as the ratio of fluorescence intensities at 665 nm and 620 nm (665 nm/620 nm).
When the measurement was performed in multiplicate, the results are represented with average values.

SMILES | IC50 ([1]; Homo sapiens, THP-1, 4 h) [µM] | IC50 (human IRAK-4) [nM] | IC50 ([1]; 4 hours) [µM]
Cc1ncc(-c2ccc3ncc4cc3c2OCCCOC(=O)C2CC(CC(C)N2C)N4)cn1 (centres unmarked) [a-02-07] | 0.033 | 2.04 | 
CN1CCCOc2c(-c3cnc(CO)s3)ccc3ncc(nc23)N[C@H]2CCN(C)[C@@H](C2)C1=O [a-01-18] | 0.104 | 1.84 | 
CCCOCc1ncc(-c2ccc3ncc4nc3c2OCCC(CC)CNC(=O)[C@@H]2C[C@H](CCN2C)N4)cn1 (some centres unmarked) [a-01-37] | 0.189 | 4.52 | 
CCCOCc1ncc(-c2ccc3ncc4nc3c2OCCCOC(=O)[C@@H]2C[C@H](CCN2C)N4)cn1 [a-01-15] | 0.081 | 2.77 | 
CN1CC[C@H]2C[C@H]1C(=O)NCCCOc1c(-c3ccns3)ccc3ncc(nc13)N2 [a-01-01] | 0.028 | 1.63 | 
CCC(O)COCc1ncc(-c2ccc3ncc4cc3c2OCCCOC(=O)[C@@H]2C[C@H](CCN2C)N4)cn1 (some centres unmarked) [a-02-08] | 0.036 | 5.73 | 
CN1CC[C@H]2C[C@H]1C(=O)NCCCOc1c(-c3cnc(COC4CCC4)nc3)ccc3ncc(nc13)N2 [a-01-13] | 0.076 | 2.95 | 
Cc1ncc(-c2ccc3ncc4nc3c2OCC(F)COC(=O)[C@@H]2C[C@H](CCN2C)N4)cn1 (some centres unmarked) [a-01-20] | 0.113 | 1.15 | 
Cc1ncc(-c2ccc3ncc4cc3c2OCCCNC(=O)[C@@H]2C[C@H](CCN2C)N4)cn1 [a-02-21] | 0.135 | 2.2 | 
CN1CC[C@H]2C[C@H]1C(=O)NCC1(CC1)COc1c(-c3cnc(CO)s3)ccc3ncc(nc13)N2 [a-01-02] | 0.044 | 0.89 | 
CN1CC[C@H]2C[C@H]1C(=O)NCC(F)(F)COc1c(-c3cncnc3)ccc3ncc(nc13)N2 [a-01-08] | 0.063 | 1.47 | 
CN1CC[C@H]2C[C@H]1C(=O)NCCCOc1c(-c3cnc(CO)nc3)ccc3ncc(nc13)N2 [a-01-32] | 0.165 | 1.59 | 
Cc1ncc(-c2ccc3ncc4cc3c2OCC(F)CNC(=O)C2(C)CC(CCN2C)N4)cn1 (centres unmarked) [a-02-23, 7-Fluoro-3^1,3^2-dimethyl-1^6-(2-methylpyrimidin-5-yl)-9-oxa-2,5-diaza-1 (3,5)-qunolina-3(4,2)-piperidinacyclononaphan-4-one] | 0.716 | 9.7 | 
CCCOCc1ncc(-c2ccc3ncc4nc3c2OCC(F)(F)CNC(=O)[C@@H]2C[C@H](CCN2C)N4)cn1 [a-01-23] | 0.124 | 1.21 | 
Cc1ncc(-c2ccc3ncc4cc3c2OCCCOC(=O)[C@@H]2C[C@H](CCN2)N4)cn1 [a-02-18] | 0.081 | 1.66 | 
CCCOCc1ncc(-c2ccc3ncc4nc3c2OCCCNC(=O)[C@@H]2C[C@H](CCN2C)N4)cn1 [a-01-07, (3^2S,3^4S)-3^1-Methyl-1^7-(2-(propoxymethyl)pyrimidin-5-yl)-9-oxa-2,5-diaza-1(2,8)-quinoxalina-3(4,2)-piperidinacyclononaphan-4-one] | 0.057 | 1.49 | 
CCCOCc1ncc(-c2ccc3ncc4cc3c2CCCCNC(=O)[C@@H]2C[C@H](CCN2C)N4)cn1 [a-02-24, (3^2S,3^4S)-3^1-Methyl-1^6-(2-(propoxymethyl)pyrimidin-5-yl)-2,5-diaza-1(3,5)-qunolina-3(4,2)-piperidinacyclononaphan-4-one] | 0.378 | 13.2 | 
CCN1CC[C@H]2C[C@H]1C(=O)NCCCOc1c(-c3cnc(CO)s3)ccc3ncc(nc13)N2 [a-01-16] | 0.092 | 1.25 | 
CCCOCc1ncc(-c2ccc3ncc4nc3c2OCC(F)CNC(=O)[C@@H]2C[C@H](CCN2C)N4)cn1 (some centres unmarked) [a-01-05] |  | 1.37 | 0.048
CN1CCCOc2c(-c3cncnc3)ccc3ncc(nc23)N[C@H]2CCN(C)[C@@H](C2)C1=O [a-01-34] | 0.177 | 4.19 | 
Cc1ncc(-c2ccc3ncc4nc3c2OCCCN(C)C(=O)[C@@H]2C[C@H](CCN2C)N4)cn1 [a-01-42] | 0.246 | 6.61 | 
CN1CC[C@H]2C[C@H]1C(=O)OCCCOc1c(-c3cnc(CO)nc3)ccc3ncc(cc13)N2 [a-02-15] | 0.064 | 2.23 | 
